Paper PMC7747769 (AIChE journal. American Institute of Chemical Engineers, 2019)

Assays:
DR1 [1] = settings: DR1 and HA306–318 peptide; cited from earlier work
DR1 [2] = type: binding, human

DNP-PKYVKQNTLKLAT [HA306–318]
IC50 (DR1 [1]): ~34 nM | SDS stability of DR1 complex (DR1 [2]): migrated as an SDS-stable heterodimer
